Assay results as given in patent US20210046106A1, “METHODS OF TREATING CANCER WITH ANDROGEN DEPRIVATION THERAPY IN COMBINATION WITH AN INHIBITOR OF THE SP1 TRANSCRIPTION FACTOR” (The Board of Trustees of the Leland Stanford Junior …, priority 2019, published 2021).
Where “and” joins values, the source holds several entries; their conditions need not be identical. Identical values can stand only once. Entries after “also recorded” stand apart in the source; their conditions may differ.

Assay: Phase 1 trial of sodium selenite with palliative radiation therapy: adverse events / toxicity
Source text: Patients: This study was approved by the Food and Drug Administration (IND 122151), the Stanford University Internal Review Board, and the Scientific Review Committee for the Stanford Cancer Institute. […] The study was initially open only to prostate cancer patients, but then expanded to include a variety of tumor types. […] Before study entry, patients had to meet a number of eligibility criteria. Inclusion criteria included a) histologically-confirmed solid tumor malignancy with confirmation of metastasis, multiple myeloma, or plasmacytoma, b) need for palliative radiation therapy, c) for prostate cancer patients, PSA at least 2 ng/mL, except for patients who had recently started androgen deprivation therapy with PSA less than 2 ng/mL, d) […], e) life expectancy greater than 3 months, f) Eastern Cooperative Oncology Group (ECOG) performance status of zero or one or Karnofsky performance status 80%, and g) QT interval corrected using Fridericia's method (QTcF) <460 msec.
Patients were treated in groups of three with each receiving the same dose. […] Dose escalation was to proceed as follows: a) if none of the three patients experienced a dose limiting toxicity (DLT), dose escalation to the next dose level would occur, b) if one of three patients treated at that dose level experienced a DLT, that dose level would be expanded to six subjects; if no additional patient in that cohort experienced a DLT, dose escalation to the next dose level would occur, c) if two patients in a cohort experienced a DLT, dose escalation would stop and the prior dose would be considered the maximum tolerated dose (MTD). At that point the MTD was to be expanded to a total of six patients.
Baseline evaluations included EKG, PSA for prostate cancer patients, CBC with differential, CMP, LDH, bone scan (BS), or CT, PET/CT or MRI as clinically indicated to monitor response to therapy. Palliative radiation therapy utilized standard of care palliative dose/fractionation regimens. On Week 1, Day 1 patients underwent physical exam (PE), laboratory studies as above and EKG. All patients completed a pain inventory, the Brief Pain Inventory, prior to therapy. […] Weekly, during radiation therapy, patients had vital signs performed, with assessment of adverse events (AEs), labs and EKG if clinically indicated. The pain inventory was completed again on the last day of radiation therapy. Following completion of therapy, the first follow-up visit was within 2-3 months +/−2 weeks, with subsequent follow-up visits optional until progression of disease at the site of radiation. […] They also completed another pain inventory.

[1] = 33 mg cohort, count-attribution

O=[Se](O)O [sodium selenite, Sodium selenite pentahydrate]
Abdominal pain grade 1: Number of Occurrences (33 mg cohort): 3 | Abdominal pain grade 1: Number of Subjects Affected (33 mg cohort): 3 | Anemia grade 3: Number of Occurrences (33 mg cohort): 1 | Anemia grade 3: Number of Subjects Affected (33 mg cohort): 1 | Anemia grade 3: Relation to Selenite (33 mg cohort): Unrelated | Back Pain grade 1: Number of Occurrences (33 mg cohort): 1 | Back Pain grade 1: Number of Subjects Affected (33 mg cohort): 1 | Back Pain grade 1: Relation to Selenite (33 mg cohort): Unrelated | Bone Pain grade 1: Number of Occurrences (33 mg cohort): 1 | Bone Pain grade 1: Number of Subjects Affected (33 mg cohort): 1 | Bone Pain grade 1: Relation to Selenite (33 mg cohort): Unrelated | Diarrhea grade 1: Number of Occurrences (33 mg cohort): 5 | Diarrhea grade 1: Number of Subjects Affected (33 mg cohort): 4 | Dizziness grade 1: Number of Occurrences (33 mg cohort): 1 | Dizziness grade 1: Number of Subjects Affected (33 mg cohort): 1 | Dizziness grade 1: Relation to Selenite (33 mg cohort): Probable | Dysphagia grade 1: Number of Occurrences (33 mg cohort): 1 | Dysphagia grade 1: Number of Subjects Affected (33 mg cohort): 1 | Dysphagia grade 1: Relation to Selenite (33 mg cohort): Unrelated | Dyspnea grade 1: Number of Occurrences (33 mg cohort): 1 | Dyspnea grade 1: Number of Subjects Affected (33 mg cohort): 1 | Dyspnea grade 1: Relation to Selenite (33 mg cohort): Unrelated | Dyspnea grade 2: Number of Occurrences (33 mg cohort): 1 | Dyspnea grade 2: Number of Subjects Affected (33 mg cohort): 1 | Dyspnea grade 2: Relation to Selenite (33 mg cohort): Unrelated | ECG QTcF Prolonged grade 1: Number of Occurrences (33 mg cohort): 2 | ECG QTcF Prolonged grade 1: Number of Subjects Affected (33 mg cohort): 2 | ECG QTcF Prolonged grade 1: Relation to Selenite (33 mg cohort): Probable | Facial Pain grade 1: Number of Occurrences (33 mg cohort): 1 | Facial Pain grade 1: Number of Subjects Affected (33 mg cohort): 1 | Facial Pain grade 1: Relation to Selenite (33 mg cohort): Unrelated | Fall (Mechanical) grade 2: Number of Occurrences (33 mg cohort): 2 | Fall (Mechanical) grade 2: Number of Subjects Affected (33 mg cohort): 1 | Fall (Mechanical) grade 2: Relation to Selenite (33 mg cohort): Unrelated | Fatigue grade 1: Number of Occurrences (33 mg cohort): 2 | Fatigue grade 1: Number of Subjects Affected (33 mg cohort): 2 | Fatigue grade 1: Relation to Selenite (33 mg cohort): Possible | Fatigue grade 2: Number of Occurrences (33 mg cohort): 2 | Fatigue grade 2: Number of Subjects Affected (33 mg cohort): 1 | Fatigue grade 2: Relation to Selenite (33 mg cohort): Unrelated,; also recorded: Possible | Flu-like Symptoms grade 1: Number of Occurrences (33 mg cohort): 2 | Flu-like Symptoms grade 1: Number of Subjects Affected (33 mg cohort): 1 | Flu-like Symptoms grade 1: Relation to Selenite (33 mg cohort): Unrelated | Nausea grade 1: Number of Occurrences (33 mg cohort): 8 | Nausea grade 1: Number of Subjects Affected (33 mg cohort): 5 | Nausea grade 2: Number of Occurrences (33 mg cohort): 1 | Nausea grade 2: Number of Subjects Affected (33 mg cohort): 1 | Paresthesia grade 1: Number of Occurrences (33 mg cohort): 1 | Paresthesia grade 1: Number of Subjects Affected (33 mg cohort): 1 | Paresthesia grade 1: Relation to Selenite (33 mg cohort): Unrelated | Sore Throat grade 1: Number of Occurrences (33 mg cohort): 1 | Sore Throat grade 1: Number of Subjects Affected (33 mg cohort): 1 | Sore Throat grade 1: Relation to Selenite (33 mg cohort): Unrelated | Upper Respiratory Infection grade 1: Number of Occurrences (33 mg cohort): 1 | Upper Respiratory Infection grade 1: Number of Subjects Affected (33 mg cohort): 1 | Upper Respiratory Infection grade 1: Relation to Selenite (33 mg cohort): Unrelated | Vomiting grade 1: Number of Occurrences (33 mg cohort): 6 | Vomiting grade 1: Number of Subjects Affected (33 mg cohort): 2 | Vomiting grade 2: Number of Occurrences (33 mg cohort): 1 | Vomiting grade 2: Number of Subjects Affected (33 mg cohort): 1 | Vomiting grade 2: Relation to Selenite (33 mg cohort): Probable | Abdominal pain grade 1: Relation to Selenite [1]: 1-Possible, and 2-Probably | Diarrhea grade 1: Relation to Selenite [1]: 2-Possible, and 3-Probable | Vomiting grade 1: Relation to Selenite [1]: 4-Probable, and 2-Unlikely | Nausea grade 1: Relation to Selenite (33 mg cohort, printed 7-Probable, 1-Unrelated over four lines): Probable,; also recorded: Unrelated | Nausea grade 2: Relation to Selenite (33 mg cohort, printed Probable/Definite over two lines): Probable/; also recorded: Definite | primary toxicities (33 mg dose level): grade 1 GI side effects | QT prolongation (33 mg dose level, ECG review): grade 1 QT prolongation in 2 patients; also recorded: two patients had grade 1 ECG QTcF prolongations; also recorded: within the range of expected intra-subject variability | primary toxicities (33 mg dose level, listed as selenite): grade 1 GI side effects; also recorded: grade 1 GI toxicities | Back Pain grade 2: Number of Occurrences (49.5 mg cohort): 1 | Back Pain grade 2: Number of Subjects Affected (49.5 mg cohort): 1 | Back Pain grade 2: Relation to Selenite (49.5 mg cohort): Unrelated | Diarrhea grade 2: Number of Occurrences (49.5 mg cohort): 1 | Diarrhea grade 2: Number of Subjects Affected (49.5 mg cohort): 1 | Diarrhea grade 2: Relation to Selenite (49.5 mg cohort): Possible | Fatigue grade 1: Number of Occurrences (49.5 mg cohort): 1 | Fatigue grade 1: Number of Subjects Affected (49.5 mg cohort): 1 | Fatigue grade 1: Relation to Selenite (49.5 mg cohort): Possible | Nausea grade 1: Number of Occurrences (49.5 mg cohort): 1 | Nausea grade 1: Number of Subjects Affected (49.5 mg cohort): 1 | Nausea grade 1: Relation to Selenite (49.5 mg cohort): Probable | Nausea grade 2: Number of Occurrences (49.5 mg cohort): 1 | Nausea grade 2: Number of Subjects Affected (49.5 mg cohort): 1 | Nausea grade 2: Relation to Selenite (49.5 mg cohort): Probable | Pain in Extremity grade 2: Number of Occurrences (49.5 mg cohort): 1 | Pain in Extremity grade 2: Number of Subjects Affected (49.5 mg cohort): 1 | Pain in Extremity grade 2: Relation to Selenite (49.5 mg cohort): Unrelated | Vomiting grade 1: Number of Occurrences (49.5 mg cohort): 1 | Vomiting grade 1: Number of Subjects Affected (49.5 mg cohort): 1 | Vomiting grade 1: Relation to Selenite (49.5 mg cohort): Probable | Vomiting grade 2: Number of Occurrences (49.5 mg cohort): 1 | Vomiting grade 2: Number of Subjects Affected (49.5 mg cohort): 1 | Vomiting grade 2: Relation to Selenite (49.5 mg cohort): Probable | toxicity in the one patient at 49.5 mg (49.5 mg dose level, 1 patient): grade 2 nausea/vomiting and diarrhea; also recorded: grade 2 GI toxicity; also recorded: grade 2 diarrhea, nausea and vomiting | toxicity / adverse events attributable to selenite (5.5, 11 and 16.5 mg dose levels, oral 2 h before RT): no toxicity attributable to selenite; also recorded: no adverse events attributable to selenite; also recorded: no AEs attributable to the selenite | toxicities at all other dose levels (33 and 49.5 mg dose levels): grade 1 and 2 GI toxicities | maximum tolerated dose (MTD) (doses 5.5 to 49.5 mg po/day with RT): not reached | highest acceptable / reasonably well tolerated dose (oral once daily with RT, ondansetron prn): 33 mg
